Experimental data as given in US6753348B2, “BTK inhibitors and methods for their identification and use” (Parker Hughes Institute, priority 1998, dated 2004).

Assays:
JAK2 = test: Tyrosine kinase assay JAK2 as named in text; format: biochemical; settings: concentrations as high as 100 μg/ml (~278 μM)
NALM-6-UM1 cells = test: Fas-mediated apoptosis, DNA fragmentation; format: cell-based, human
Experimental: FIGS. 6A-6D: Apoptotic Responses of Human B-lineage Leukemia Cells to Fas Ligation in Relationship to BTK Expression and Function. Anti-BTK and anti-Actin dual-antibody Western blot analysis of whole cell lysates from BTK-positive NALM-6-UM1 (N6-U1) and BTK-deficient RAMOS-1 cells (FIG. 5A). Anti-Fas Western blot analysis of the same cell lysates. [B] Cells were harvested 24 hours after exposure to anti-Fas antibody at 0.1 μg/ml or 1.0 μg/ml concentrations and DNA from Triton-X-100 lysates was analyzed for fragmentation, as described by Uckun, F. M., et al. (1996) Science 273, 1096-1100; and Uckun, F. M., et al. (1995) Science 267, 886-91. […] [C.1] and [C.2] […] N6-U1 cells were harvested 24 hours after exposure to anti-Fas antibody at 0.1 μg/ml or 1.0 μg/ml concentrations and DNA from Triton-X-100 lysates was analyzed for fragmentation, as described by Uckun, F. M., et al. (1996) Science 273, 1096-1100; and Uckun, F. M., et al. (1995) Science 267, 886-91. […]
Apoptosis Assays. […] MC540 binding (as an early marker of apoptosis) and PI permeability (as a marker of advanced stage apoptosis) were simultaneously measured in DT-40 cells 24 hours after exposure to anti-Fas antibody as previously described (Uckun, F. M., et al. (1996) Science 273, 1096-1100). Whole cells were analyzed with a FACStar Plus flow cytometer (Becton Dickinson, San Jose, Calif.). […]

ALL-1 cells = test: Ceramide-induced apoptosis, MC540/PI flow cytometry; format: cell-based, human; settings: 200 μM plus 10 μM C2-ceramide

## C/C(O)=C(\C#N)C(=O)Nc1cc(Br)ccc1Br [LFM-A13, α-Cyano-β-hydroxy-β-methyl-N-(2,5-dibromophenyl)-propenamide]
JAK2
  effect on enzymatic activity of JAK2: did not affect the enzymatic activity
NALM-6-UM1 cells; 10 μM x 4 hours, then anti-Fas 0.1 or 1.0 μg/ml, 24 hours
  sensitivity to Fas-mediated apoptosis after pretreatment: sensitive to Fas-mediated apoptosis
NALM-6-UM1 cells; 10 μM, 4 hour treatment
  apoptosis by compound alone: did not induce apoptosis
ALL-1 cells
  chemosensitivity to ceramide-induced apoptosis: significantly enhanced the chemosensitivity
